SMILES strings stand for the structures.

The assay can be described thus: Activity against thromboxane A2 receptor evaluated by aggregation of human platelets.

One may read the EC50 as the concentration at which the effect is half-maximal. Read a high EC50 as weaker potency. Compound `CCCCCC(O)/C=C/[C@@H]1[C@@H](C/C=C\CCCC(=O)O)[C@@H]2C[C@H]1OC(=O)O2` (stereo partly drawn) [(Z)-7-[(1R,5S,6R,7R)-7-((E)-3-Hydroxy-oct-1-enyl)-3-oxo-2,4-dioxa-bicyclo[3.2.1]oct-6-yl]-hept-5-enoic acid] gave an EC50 of 24 nM.

For `CCCCCC(O)/C=C/[C@@H]1[C@@H](C/C=C\CCCC(N)=O)[C@@H]2C[C@H]1OC(=O)O2` (stereo partly drawn) [(Z)-7-[(1R,5S,6R,7R)-7-((E)-3-Hydroxy-oct-1-enyl)-3-oxo-2,4-dioxa-bicyclo[3.2.1]oct-6-yl]-hept-5-enoic acid amide], the EC50 amounted to 3110 nM.
